Test results: paper PMC4027206, “Crystal structure of Saccharomyces cerevisiae mitochondrial GatFAB reveals a novel subunit assembly in tRNA-dependent amidotransferases” (Nucleic Acids Research, 2014)

How the values were obtained:
[1] = target: T1, GatFABF24–183 (pseudo-wild-type, full-length GatFAB) (Saccharomyces cerevisiae, UniProt Q03557); test: glutaminase assay, […]Gln, TLC; assay type: biochemical; conditions: 50 μM [14C]L-glutamine; Glu-tRNA^Gln, ATP, 12 mM MgCl2, pH 7.2, 37°C; labelled compound
T1 construct: gene HER2; heterotrimer; E. coli host; with Glutamyl-tRNA(Gln) amidotransferase subunit B, mitochondrial; Glutamyl-tRNA(Gln) amidotransferase subunit F, mitochondrial
T1 sequence (Q03557 1-464): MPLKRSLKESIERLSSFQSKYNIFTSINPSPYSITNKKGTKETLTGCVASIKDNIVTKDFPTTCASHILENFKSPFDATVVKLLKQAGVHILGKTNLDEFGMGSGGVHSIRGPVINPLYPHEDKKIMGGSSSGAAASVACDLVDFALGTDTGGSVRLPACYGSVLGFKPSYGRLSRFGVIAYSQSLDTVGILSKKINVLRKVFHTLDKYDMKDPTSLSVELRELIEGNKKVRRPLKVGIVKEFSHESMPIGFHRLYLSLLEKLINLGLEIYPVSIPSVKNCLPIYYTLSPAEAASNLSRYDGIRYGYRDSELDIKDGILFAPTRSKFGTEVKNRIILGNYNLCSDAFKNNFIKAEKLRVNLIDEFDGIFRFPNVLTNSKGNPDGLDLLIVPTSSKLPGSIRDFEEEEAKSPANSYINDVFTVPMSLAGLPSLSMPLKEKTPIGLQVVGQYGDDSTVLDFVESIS
T1 sequence (P33893 16-541 partner): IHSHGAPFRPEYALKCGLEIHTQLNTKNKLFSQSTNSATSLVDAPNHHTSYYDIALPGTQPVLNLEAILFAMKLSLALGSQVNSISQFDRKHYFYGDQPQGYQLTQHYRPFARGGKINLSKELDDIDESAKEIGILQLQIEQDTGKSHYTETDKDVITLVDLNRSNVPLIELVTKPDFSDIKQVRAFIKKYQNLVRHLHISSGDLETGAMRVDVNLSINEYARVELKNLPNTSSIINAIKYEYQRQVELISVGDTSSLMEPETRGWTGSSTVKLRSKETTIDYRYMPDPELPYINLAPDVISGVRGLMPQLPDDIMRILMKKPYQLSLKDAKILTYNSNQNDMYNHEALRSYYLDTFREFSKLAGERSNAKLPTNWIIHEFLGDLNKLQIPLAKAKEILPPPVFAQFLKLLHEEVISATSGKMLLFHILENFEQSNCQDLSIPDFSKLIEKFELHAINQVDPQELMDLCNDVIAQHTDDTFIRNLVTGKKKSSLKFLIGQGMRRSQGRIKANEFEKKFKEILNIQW
T1 sequence (P53260 24-183 partner): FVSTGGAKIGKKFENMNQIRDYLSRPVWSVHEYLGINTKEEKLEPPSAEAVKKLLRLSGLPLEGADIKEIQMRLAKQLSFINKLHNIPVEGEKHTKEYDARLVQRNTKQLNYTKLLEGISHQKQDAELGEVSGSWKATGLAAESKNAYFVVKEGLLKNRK

[2] = target: T2, GatFABΔHY (Saccharomyces cerevisiae, UniProt Q03557); test: X-ray crystal structure, […] Å; assay type: binding; conditions: 10 mM glutamine added before crystallization; GatA glutaminase site (R334, D418, near S154)
T2 construct: gene HER2; heterotrimer; E. coli host; with Glutamyl-tRNA(Gln) amidotransferase subunit B, mitochondrial; Glutamyl-tRNA(Gln) amidotransferase subunit F, mitochondrial
T2 sequence (Q03557 1-464): T1 sequence (Q03557 1-464)
T2 sequence (P33893 16-329 partner): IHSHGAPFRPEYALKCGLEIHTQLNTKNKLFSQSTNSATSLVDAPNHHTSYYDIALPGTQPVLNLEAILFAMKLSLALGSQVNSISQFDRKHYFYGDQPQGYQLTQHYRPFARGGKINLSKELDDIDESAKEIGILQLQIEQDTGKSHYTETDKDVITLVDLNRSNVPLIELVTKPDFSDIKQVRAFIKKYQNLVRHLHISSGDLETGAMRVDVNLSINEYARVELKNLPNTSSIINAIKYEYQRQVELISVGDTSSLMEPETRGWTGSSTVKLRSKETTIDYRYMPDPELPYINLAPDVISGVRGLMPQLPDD
T2 sequence (P53260 24-183 partner): T1 sequence (P53260 24-183 partner)

NC(=O)CC[C@H](N)C(=O)O [glutamine]
glutaminase assay, [14C]Gln, TLC [1]: reduced activities in both GatA-mediated glutamine-hydrolysis and GatB-mediated transamidation when compared to that of the full-length
X-ray crystal structure, 2.0 Å [2]: the glutamine molecule is bound to the glutaminase site of GatA
